From patent EP0938474B1, “CYCLOPROPYLINDOLE COMPOUNDS AND THEIR USE AS PRODRUGS” (AUCKLAND UNISERVICES LIMITED, priority 1996, dated 1998)

Experiments:
[1] = test system: human ovarian NR- (wild-type) line SKOV3; assay: Cytotoxicity in untransfected control cells (NR-), nitroreductase activation test; assay type: cell-based; details: SK-OV-3, IC50, unit inferred, read-out: Human ovarian lines NR-
Text: (§1) Compounds of the invention were further tested against human cell lines (NR+ in Table 3) transfected with a gene encoding a bacterial nitroreductase (NR) enzyme to test for activation of compounds of the invention with NR. Untransfected control cells (NR- in Table 3) were used as controls. The cells used were the human colon NR-(wild-type) line WIDR and its transfected NR+ counterpart WC14.10; and the human ovarian NR- (wild-type) line SKOV3 together with its NR+ (transfected) counterpart SC3.2. The results are shown in Table 3, which also indicates the ratios of IC50s. These are intra-experiment values, and may differ slightly from those calculated from the given NR- and NR+ values.

[2] = test system: human colon NR-(wild-type) line WIDR; assay: as above; assay type: cell-based; details: IC50, unit inferred, read-out: Human colon lines NR-
Text: as §1

WC14.10 = assay: Cytotoxicity in cells transfected with bacterial nitroreductase (NR+); assay type: cell-based; details: Homo sapiens; WC14.10 (NR+ transfected counterpart of WIDR); IC50, unit inferred; read-out: Human colon lines NR+
Text: as §1

SC3.2 = assay: as above; assay type: cell-based; details: Homo sapiens, SK-OV-3; SC3.2 (NR+ transfected counterpart of SKOV3); IC50, unit inferred; read-out: Human ovarian lines NR+
Text: as §1

[3] = background statement, test system not given; cited from earlier work

Structure (SMILES): COc1cc2cc(C(=O)N3CC(CCl)c4c3cc(NC(=O)OCc3ccc([N+](=O)[O-])cc3)c3ccccc43)[nH]c2c(OC)c1OC (stereo not shown) [15r, 1-(chloromethyl)-5-[(4-nitrobenzyloxycarbonyl)amino]-3-[(5,6,7-trimethoxyindol-2-yl)carbonyl]-1,2 - dihydro-3H-benz[e] indole]
- IC50 [1]: 62 nM
- IC50 [2]: 390 nM
- IC50 (WC14.10): 12 nM
- IC50 (SC3.2): 5.4 nM

Structure (SMILES): COC(=O)c1cc2c3c(cc(NC(=O)OCc4ccc([N+](=O)[O-])cc4)c2[nH]1)N(C(=O)c1cc2cc(OC)c(OC)c(OC)c2[nH]1)CC3CCl (stereo not shown) [32d, methyl 1-(chloromethyl) -5-[(4-nitrobenzyloxycarbonyl) -amino] -3-[(5,6,7-trimethoxyindol-2-yl)carbonyl]-1,2-dihydro-3H-pyrrolo[3,2-e]indole-7-carboxylate]
- IC50 [1]: 1100 nM
- IC50 [2]: 490 nM
- IC50 (WC14.10): 260 nM
- IC50 (SC3.2): 270 nM

Structure (SMILES): COc1c(O)c2c(c3cc(C(=O)N4CCc5c4c(O)c(OC)c4[nH]c(C(=O)N6CC7CC78C6=CC(=O)c6[nH]cc(C)c68)cc54)[nH]c13)CCN2C(N)=O (stereo not shown) [CC-1065]
- IC50's [3]: low pM range

Structure (SMILES): COC(=O)c1cc2c3c(cc([N+](=O)[O-])c2[nH]1)N(C(=O)c1cc2cc(OC)c(OC)c(OC)c2[nH]1)CC3CCl (stereo not shown) [compound 31, methyl 1-(chloromethyl)-5-nitro-3-[(5,6,7-trimethoxyindol-2-yl)carbonyl]-1,2-dihydro-3H-pyrrolo[3,2-e]indole-7-carboxylate]
- IC50 [1]: 60 nM
- IC50 [2]: 400 nM
- IC50 (WC14.10): 10 nM
- IC50 (SC3.2): 5 nM
